From patent US12398120B2, “Substituted hydantoinamides as ADAMTS7 antagonists” (BAYER AKTIENGESELLSCHAFT, priority 2019, dated 2025)

target: ADAMTS4 (Homo sapiens (Human), UniProt O75173); experiment: Selectivity assay for ADAMTS-7 modulators: ADAMTS4 (FRET substrate); format: biochemical; settings: ADAMTS4 (R&D 4307-AD) 50 nM, substrate Dabcyl-EEVKAKVQPY-Glu(Edans)-NH2 1 μM, 120 min, 32° C.
Method: 1 μl test compound solution (dissolved in DMSO, at the corresponding concentration) or pure DMSO as a control was added per well. The enzymatic reaction was initiated by addition of 25 μl of the respective concentration of the respective FRET substrate (see table 2 below) in reaction buffer.
The increase of fluorescence intensity was measured in appropriate fluorescence plate reader (e.g. TECAN Ultra) using the respective wavelengths for excitation and emission. IC50 values were calculated from percentage of inhibition of enzyme activity as a function of test compound concentration.

Chain of ADAMTS4 (O75173 213-685): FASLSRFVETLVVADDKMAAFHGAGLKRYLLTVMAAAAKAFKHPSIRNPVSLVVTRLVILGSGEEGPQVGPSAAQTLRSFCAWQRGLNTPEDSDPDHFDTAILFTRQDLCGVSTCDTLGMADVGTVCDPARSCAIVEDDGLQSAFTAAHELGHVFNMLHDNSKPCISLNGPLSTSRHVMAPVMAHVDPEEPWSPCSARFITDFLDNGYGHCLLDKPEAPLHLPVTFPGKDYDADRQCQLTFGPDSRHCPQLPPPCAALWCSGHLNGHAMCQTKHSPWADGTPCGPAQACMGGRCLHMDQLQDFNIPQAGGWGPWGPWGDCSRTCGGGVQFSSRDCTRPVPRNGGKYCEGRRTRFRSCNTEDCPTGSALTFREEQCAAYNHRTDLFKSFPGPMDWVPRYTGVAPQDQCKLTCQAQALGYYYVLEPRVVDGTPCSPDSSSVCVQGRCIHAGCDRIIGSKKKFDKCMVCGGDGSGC

| IC50 [µM] | SMILES |
| --- | --- |
| 23 | Cc1cnoc1C1(CNC(=O)c2ccccc2-c2ccc(C(F)(F)F)cc2)NC(=O)NC1=O (racemic) [Example 59, Rac-N-{[4-(4-Methyl-1,2-Oxazol-5-Yl)-2,5-Dioxoimidazolidin-4-Yl]Methyl}-4′-(Trifluoromethyl)[Biphenyl]-2-Carboxamide] |
| 15 | Cc1nn(C)cc1C1(CNC(=O)c2ccccc2-c2ccc(C(F)(F)F)cc2)NC(=O)NC1=O (racemic) [Example 60, Rac-N-{[4-(1,3-Dimethyl-1H-Pyrazol-4-Yl)-2,5-Dioxoimidazolidin-4-Yl]Methyl}-4′-(Trifluoromethyl)[Biphenyl]-2-Carboxamide] |
| 7.4 | Cc1cnn(C)c1C1(CNC(=O)c2ccccc2-c2ccc(C(F)(F)F)cc2)NC(=O)NC1=O (racemic) [Example 61, Rac-N-{[4-(1,4-Dimethyl-1H-Pyrazol-5-Yl)-2,5-Dioxoimidazolidin-4-Yl]Methyl}-4′-(Trifluoromethyl)[Biphenyl]-2-Carboxamide] |
| 26 | Cc1nsnc1C1(CNC(=O)c2ccccc2-c2ccc(C(F)(F)F)cc2)NC(=O)NC1=O (racemic) [Example 62, Rac-N-{[4-(4-Methyl-1,2,5-Thiadiazol-3-Yl)-2,5-Dioxoimidazolidin-4-Yl]Methyl}-4′-(Trifluoromethyl)[Biphenyl]-2-Carboxamide] |
| 13 | Cc1nscc1C1(CNC(=O)c2ccccc2-c2ccc(C(F)(F)F)cc2)NC(=O)NC1=O (racemic) [Example 63, Rac-N-{[4-(3-Methyl-1,2-Thiazol-4-Yl)-2,5-Dioxoimidazolidin-4-Yl]Methyl}-4′-(Trifluoromethyl)[Biphenyl]-2-Carboxamide] |
| 40 | Cc1cnoc1C1(CNC(=O)c2ccccc2-c2ccc(C(F)(F)F)nc2)NC(=O)NC1=O (racemic) [Example 77, Rac-N-{[4-(4-Methyl-1,2-Oxazol-5-Yl)-2,5-Dioxoimidazolidin-4-Yl]Methyl}-2-[6-(Trifluoromethyl)Pyridin-3-Yl]Benzamide] |
| > 50 | CCC1(CNC(=O)c2ccccc2-c2ccc(C(F)(F)F)cc2)NC(=O)NC1=O (racemic) [Example 81, Rac-N-[(4-Ethyl-2,5-Dioxoimidazolidin-4-Yl)Methyl]-4′-(Trifluoromethyl)[Biphenyl]-2-Carboxamide] |
| 5.4 | O=C1NC(=O)C(CNC(=O)c2ccccc2-c2ccc(C(F)(F)F)cc2)(c2cncn2CC(F)(F)F)N1 (racemic) [Example 94, Rac-N-({2,5-Dioxo-4-[1-(2,2,2-Trifluoroethyl)-1H-Imidazol-5-Yl]Imidazolidin-4-Yl}Methyl)-4′-(Trifluoromethyl)[Biphenyl]-2-Carboxamide] |
| > 50 | CC1(CNC(=O)c2ccccc2-c2ccc(C(F)(F)F)cc2)NC(=O)NC1=O (racemic) [Example 95, Rac-N-[(4-Methyl-2,5-Dioxoimidazolidin-4-Yl)Methyl]-4′-(Trifluoromethyl)[Biphenyl]-2-Carboxamide] |
| 7.2 | Cc1cnsc1C1(CNC(=O)c2ccccc2-c2ccc(C(F)(F)F)cc2)NC(=O)NC1=O (racemic) [Example 97, Rac-N-{[4-(4-Methyl-1,2-Thiazol-5-Yl)-2,5-Dioxoimidazolidin-4-Yl]Methyl}-4′-(Trifluoromethyl)[Biphenyl]-2-Carboxamide] |
| 21 | Cc1c(C2(CNC(=O)c3ccccc3-c3ccc(C(F)(F)F)cc3)NC(=O)NC2=O)cnn1CC(F)(F)F (racemic) [Example 98, Rac-N-({4-[5-Methyl-1-(2,2,2-Trifluoroethyl)-1H-Pyrazol-4-Yl]-2,5-Dioxoimidazolidin-4-Yl}Methyl)-4′-(Trifluoromethyl)[Biphenyl]-2-Carboxamide] |
| 14 | Cc1ccc(-c2ccccc2C(=O)NCC2(c3ccccn3)NC(=O)NC2=O)cc1 (racemic) [Example 164, Rac-N-{[2,5-Dioxo-4-(Pyridin-2-Yl)Imidazolidin-4-Yl]Methyl}-4′-Methyl[Biphenyl]-2-Carboxamide] |
| 6.6 | Cc1scnc1C1(CNC(=O)c2cc(F)ccc2-c2ccc(C(F)(F)F)cc2)NC(=O)NC1=O (racemic) [Example 165, Rac-4-Fluoro-N-{[4-(5-Methyl-1,3-Thiazol-4-Yl)-2,5-Dioxoimidazolidin-4-Yl]Methyl}-4′-(Trifluoromethyl)[Biphenyl]-2-Carboxamide] |
| 4.4 | Cc1ccc(C(=O)NCC2(c3ncsc3C)NC(=O)NC2=O)c(-c2ccc(C(F)(F)F)cc2)c1 (racemic) [Example 167, Rac-5-Methyl-N-{[4-(5-Methyl-1,3-Thiazol-4-Yl)-2,5-Dioxoimidazolidin-4-Yl]Methyl}-4′-(Trifluoromethyl)[Biphenyl]-2-Carboxamide] |
| 8.5 | Cc1scnc1C1(CNC(=O)c2ccc(F)cc2-c2ccc(Cl)cc2)NC(=O)NC1=O (racemic) [Example 169, Rac-4′-Chloro-5-Fluoro-N-{[4-(5-Methyl-1,3-Thiazol-4-Yl)-2,5-Dioxoimidazolidin-4-Yl]Methyl}[Biphenyl]-2-Carboxamide] |
| 6.9 | Cc1scnc1C1(CNC(=O)c2ccccc2-c2ccc(Cl)cc2)NC(=O)NC1=O (racemic) [Example 171, Rac-4′-Chloro-N-{[4-(5-Methyl-1,3-Thiazol-4-Yl)-2,5-Dioxoimidazolidin-4-Yl]Methyl}[Biphenyl]-2-Carboxamide] |
| 12 | Cn1nccc1C1(CNC(=O)c2cc(F)ccc2-c2ccc(C(F)(F)F)cc2)NC(=O)NC1=O (racemic) [Example 177, Rac-4-Fluoro-N-{[4-(1-Methyl-1H-Pyrazol-5-Yl)-2,5-Dioxoimidazolidin-4-Yl]Methyl}-4′-(Trifluoromethyl)[Biphenyl]-2-Carboxamide] |
| 12 | Cn1nccc1C1(CNC(=O)c2ccc(F)cc2-c2ccc(Cl)cc2)NC(=O)NC1=O (racemic) [Example 179, Rac-4′-Chloro-5-Fluoro-N-{[4-(1-Methyl-1H-Pyrazol-5-Yl)-2,5-Dioxoimidazolidin-4-Yl]Methyl}[Biphenyl]-2-Carboxamide] |
| 12 | Cn1nccc1C1(CNC(=O)c2ccccc2-c2ccc(Cl)cc2)NC(=O)NC1=O (racemic) [Example 181, Rac-4′-Chloro-N-{[4-(1-Methyl-1H-Pyrazol-5-Yl)-2,5-Dioxoimidazolidin-4-Yl]Methyl}[Biphenyl]-2-Carboxamide] |
| 19 | Cn1nccc1C1(CNC(=O)c2ccc(F)cc2-c2ccc(C(F)(F)F)cc2)NC(=O)NC1=O (racemic) [Example 183, Rac-5-Fluoro-N-{[4-(1-Methyl-1H-Pyrazol-5-Yl)-2,5-Dioxoimidazolidin-4-Yl]Methyl}-4′-(Trifluoromethyl)[Biphenyl]-2-Carboxamide] |
| 30 | O=C1NC(=O)C(CNC(=O)c2ccccc2-c2ccc(C(F)(F)F)cc2)(c2cscn2)N1 (racemic) [Example 196, Rac-N-{[2,5-Dioxo-4-(1,3-Thiazol-4-Yl)Imidazolidin-4-Yl]Methyl}-4′-(Trifluoromethyl)[Biphenyl]-2-Carboxamide] |
| 39 | O=C1NC(=O)C(CNC(=O)c2ccc(F)cc2-c2ccc(C(F)(F)F)cc2)(c2cscn2)N1 (racemic) [Example 198, Rac-N-{[2,5-Dioxo-4-(1,3-Thiazol-4-Yl)Imidazolidin-4-Yl]Methyl}-5-Fluoro-4′-(Trifluoromethyl)[Biphenyl]-2-Carboxamide] |
| 28 | Cc1ccc(-c2ccccc2C(=O)NCC2(c3nccs3)NC(=O)NC2=O)cc1 (racemic) [Example 200, Rac-N-{[2,5-Dioxo-4-(1,3-Thiazol-2-Yl)Imidazolidin-4-Yl]Methyl}-4′-Methyl[Biphenyl]-2-Carboxamide] |
| 38 | Cc1ccc(C(=O)NCC2(C(C)C)NC(=O)NC2=O)c(-c2ccc(C(F)(F)F)cc2)c1 (racemic) [Example 202, Rac-N-[(4-Isopropyl-2,5-Dioxoimidazolidin-4-Yl)Methyl]-5-Methyl-4′-(Trifluoromethyl)[Biphenyl]-2-Carboxamide] |
| > 50 | CC(C)C1(CNC(=O)c2ccc(F)cc2-c2ccc(C(F)(F)F)cc2)NC(=O)NC1=O (racemic) [Example 206, Rac-5-Fluoro-N-[(4-Isopropyl-2,5-Dioxoimidazolidin-4-Yl)Methyl]-4′-(Trifluoromethyl)[Biphenyl]-2-Carboxamide] |
| > 50 | CC(C)C1(CNC(=O)c2ccccc2-c2ccc(C(F)(F)F)cc2)NC(=O)NC1=O (racemic) [Example 208, Rac-N-[(4-Isopropyl-2,5-Dioxoimidazolidin-4-Yl)Methyl]-4′-(Trifluoromethyl)[Biphenyl]-2-Carboxamide] |
| > 50 | O=C1NC(=O)C(CNC(=O)c2ccc(F)cc2-c2ccc(C(F)(F)F)cc2)(c2ncccc2C(F)(F)F)N1 (racemic) [Example 240, Rac-N-({2,5-Dioxo-4-[3-(Trifluoromethyl)Pyridin-2-Yl]Imidazolidin-4-Yl}Methyl)-5-Fluoro-4′-(Trifluoromethyl)[Biphenyl]-2-Carboxamide] |
| 41 | O=C1NC(=O)C(CNC(=O)c2ccc(F)cc2-c2ccc(Cl)cc2)(c2ncccc2C(F)(F)F)N1 (racemic) [Example 241, Rac-4′-Chloro-N-({2,5-Dioxo-4-[3-(Trifluoromethyl)Pyridin-2-Yl]Imidazolidin-4-Yl}Methyl)-5-Fluoro[Biphenyl]-2-Carboxamide] |
| 29 | O=C1NC(=O)C(CNC(=O)c2ccccc2-c2ccc(Cl)cc2)(c2ncccc2C(F)(F)F)N1 (racemic) [Example 242, Rac-4′-Chloro-N-({2,5-Dioxo-4-[3-(Trifluoromethyl)Pyridin-2-Yl]Imidazolidin-4-Yl}Methyl)[Biphenyl]-2-Carboxamide] |

| SMILES | IC50 [µM] |
| --- | --- |
| Cc1ccc(-c2ccccc2C(=O)NCC2(C(C)C)NC(=O)NC2=O)cc1 (racemic) [Example 204, Rac-N-[(4-Isopropyl-2,5-Dioxoimidazolidin-4-Yl)Methyl]-4′-Methyl[Biphenyl]-2-Carboxamide] | 22 |
